What was measured:
[1] = system: Rattus norvegicus; assay: Reduction in total plasma cholesterol level in cholesterol-fed Sprague-Dawley rat at 0.5 mg/kg, po after 24 hrs; assay type: functional; parameters: scale not given: the % may be the effect or the level left
[2] = system: Rattus norvegicus; assay: Reduction in total plasma cholesterol level in cholesterol-fed orally dosed Sprague-Dawley rat after 24 hrs; assay type: functional; details: po
[3] = AUClast in Sprague-Dawley rat at 3 mg/kg, iv; assay type: ADME, organism-based; parameters: time 0 - last, dose 3 mg/kg, route intravenous; details: plasma
[4] = AUClast in Sprague-Dawley rat at 3 mg/kg, po; assay type: ADME, organism-based; parameters: time 0 - last, dose 3 mg/kg, route oral; details: plasma
[5] = system: Rattus norvegicus; assay: Cmax in Sprague-Dawley rat at 3 mg/kg, iv; assay type: ADME, organism-based; parameters: dose 3 mg/kg, route intravenous; details: in vivo
[6] = system: Rattus norvegicus; assay: Cmax in Sprague-Dawley rat at 3 mg/kg, po; assay type: ADME, organism-based; parameters: dose 3 mg/kg, route oral; details: in vivo
[7] = Tmax in Sprague-Dawley rat at 3 mg/kg, iv; assay type: ADME, organism-based; parameters: dose 3 mg/kg, route intravenous; details: in vivo
[8] = system: Rattus norvegicus; assay: Tmax in Sprague-Dawley rat at 3 mg/kg, po; assay type: ADME, organism-based; parameters: dose 3 mg/kg, route oral; details: in vivo
[9] = system: Rattus norvegicus; assay: Half life in Sprague-Dawley rat at 3 mg/kg, iv; assay type: ADME, organism-based; parameters: dose 3 mg/kg, route intravenous; details: in vivo
[10] = system: Rattus norvegicus; assay: Half life in Sprague-Dawley rat at 3 mg/kg, po; assay type: ADME, organism-based; parameters: dose 3 mg/kg, route oral; details: in vivo
[11] = Mean residence time in Sprague-Dawley rat at 3 mg/kg, iv; assay type: ADME, organism-based; parameters: dose 3 mg/kg, route intravenous; details: in vivo
[12] = Mean residence time in Sprague-Dawley rat at 3 mg/kg, po; assay type: ADME, organism-based; parameters: dose 3 mg/kg, route oral; details: in vivo
[13] = system: Rattus norvegicus; assay: Mean absorption time in Sprague-Dawley rat at 3 mg/kg, po; assay type: ADME, organism-based; parameters: dose 3 mg/kg, route oral; details: in vivo
[14] = Oral bioavailability in Sprague-Dawley rat at 3 mg/kg; assay type: ADME, organism-based; details: in vivo
[15] = system: Rattus norvegicus; assay: Reduction in total plasma cholesterol level in cholesterol-fed orally dosed Sprague-Dawley rat after 24 hrs relative to control; assay type: functional; parameters: scale not given: the % may be the effect or the level left
[16] = system: Rattus norvegicus; assay: AUClast in Sprague-Dawley rat assessed as 3,5-Dimethyl-4-(4'-hydroxy-3'-isopropylbenzyl)phenoxy]methylphosphonic acid level at 3 mg/kg, iv; assay type: ADME, organism-based, Plasma; parameters: time 0 - last, dose 3 mg/kg, route intravenous; details: in vivo
[17] = system: Rattus norvegicus; assay: AUClast in Sprague-Dawley rat assessed as 3,5-Dimethyl-4-(4'-hydroxy-3'-isopropylbenzyl)phenoxy]methylphosphonic acid level at 3 mg/kg, po; assay type: ADME, organism-based, Plasma; parameters: time 0 - last, dose 3 mg/kg, route oral; details: in vivo
[18] = system: Rattus norvegicus; assay: Cmax in Sprague-Dawley rat assessed as 3,5-Dimethyl-4-(4'-hydroxy-3'-isopropylbenzyl)phenoxy]methylphosphonic acid level at 3 mg/kg, iv; assay type: ADME, organism-based; parameters: dose 3 mg/kg, route intravenous; details: in vivo
[19] = system: Rattus norvegicus; assay: Cmax in Sprague-Dawley rat assessed as 3,5-Dimethyl-4-(4'-hydroxy-3'-isopropylbenzyl)phenoxy]methylphosphonic acid level at 3 mg/kg, po; assay type: ADME, organism-based; parameters: dose 3 mg/kg, route oral; details: in vivo
[20] = system: Rattus norvegicus; assay: Tmax in Sprague-Dawley rat assessed as 3,5-Dimethyl-4-(4'-hydroxy-3'-isopropylbenzyl)phenoxy]methylphosphonic acid level at 3 mg/kg, iv; assay type: ADME, organism-based; parameters: dose 3 mg/kg, route intravenous; details: in vivo
[21] = system: Rattus norvegicus; assay: Tmax in Sprague-Dawley rat assessed as 3,5-Dimethyl-4-(4'-hydroxy-3'-isopropylbenzyl)phenoxy]methylphosphonic acid level at 3 mg/kg, po; assay type: ADME, organism-based; parameters: dose 3 mg/kg, route oral; details: in vivo
[22] = system: Rattus norvegicus; assay: Half life in Sprague-Dawley rat assessed as 3,5-Dimethyl-4-(4'-hydroxy-3'-isopropylbenzyl)phenoxy]methylphosphonic acid level at 3 mg/kg, iv; assay type: ADME, organism-based; parameters: dose 3 mg/kg, route intravenous; details: in vivo
[23] = system: Rattus norvegicus; assay: Half life in Sprague-Dawley rat assessed as 3,5-Dimethyl-4-(4'-hydroxy-3'-isopropylbenzyl)phenoxy]methylphosphonic acid level at 3 mg/kg, po; assay type: ADME, organism-based; parameters: dose 3 mg/kg, route oral; details: in vivo
[24] = system: Rattus norvegicus; assay: Mean residence time in Sprague-Dawley rat assessed as 3,5-Dimethyl-4-(4'-hydroxy-3'-isopropylbenzyl)phenoxy]methylphosphonic acid level at 3 mg/kg, iv; assay type: ADME, organism-based; parameters: dose 3 mg/kg, route intravenous; details: in vivo
[25] = system: Rattus norvegicus; assay: Mean residence time in Sprague-Dawley rat assessed as 3,5-Dimethyl-4-(4'-hydroxy-3'-isopropylbenzyl)phenoxy]methylphosphonic acid level at 3 mg/kg, po; assay type: ADME, organism-based; parameters: dose 3 mg/kg, route oral; details: in vivo
[26] = system: Rattus norvegicus; assay: Mean absorption time in Sprague-Dawley rat assessed as 3,5-Dimethyl-4-(4'-hydroxy-3'-isopropylbenzyl)phenoxy]methylphosphonic acid level at 3 mg/kg, po; assay type: ADME, organism-based; parameters: dose 3 mg/kg, route oral; details: in vivo
[27] = system: Rattus norvegicus; assay: Oral bioavailability in Sprague-Dawley rat assessed as 3,5-Dimethyl-4-(4'-hydroxy-3'-isopropylbenzyl)phenoxy]methylphosphonic acid level at 3 mg/kg; assay type: ADME, organism-based; details: in vivo

Cc1cc(OCP2(=O)OCC[C@@H](c3cccc(Cl)c3)O2)cc(C)c1Cc1ccc(O)c(C(C)C)c1 (some centres not stated) [MB07811]
Activity [1]: 36% | ED50 [2]: 0.48 mg/kg | AUC(0-t) [3]: 260 ng·h/mL | AUC(0-t) [4]: 26 ng·h/mL | Cmax [5]: 600 ng/mL | Cmax [6]: 12 ng/mL | Tmax [7]: 0 h | Tmax [8]: 2.1 h | t1/2 [9]: 1.23 h | t1/2 [10]: 0.95 h | MRT [11]: 1.2 h | MRT [12]: 2.49 h | MAT [13]: 1.29 h | bioavailability [14]: 9.9% | Activity [15]: 55% | AUClast [16]: 340 ng·h/mL | AUClast [17]: 135 ng·h/mL | Cmax [18]: 92 ng/mL | Cmax [19]: 18 ng/mL | Tmax [20]: 0.6 h | Tmax [21]: 3.6 h | t1/2 [22]: 8.82 h | t1/2 [23]: 9.25 h | MRT [24]: 4.49 h | MRT [25]: 7.91 h | MAT [26]: 3.4 h | F [27]: 39.2%

— ChEMBL document CHEMBL1152303, “Synthesis and biological evaluation of a series of liver-selective phosphonic acid thyroid hormone receptor agonists and their prodrugs” (J Med Chem, 2008)
